Data from patent publication US20240384268A1, “Oligonucleotides” (Hudson Institute of Medical Research, priority 2021, published 2024).
In the oligonucleotide strings, read from the 5' end, every base follows the letter of its sugar. An asterisk marks phosphorothioate; unmarked linkages are phosphodiester. Other units and linkages are bracketed, terminal groups are in braces. A string of capitals states the bases alone. d = 2'-deoxy (DNA); m = 2'-O-methyl

Target: T1, human TLR9 (Homo sapiens, UniProt Q9NR96)
T1 construct: HA; host or cells: 293XL-hTLR9-HA (HEK293)
T1 sequence (Q9NR96 26-1032): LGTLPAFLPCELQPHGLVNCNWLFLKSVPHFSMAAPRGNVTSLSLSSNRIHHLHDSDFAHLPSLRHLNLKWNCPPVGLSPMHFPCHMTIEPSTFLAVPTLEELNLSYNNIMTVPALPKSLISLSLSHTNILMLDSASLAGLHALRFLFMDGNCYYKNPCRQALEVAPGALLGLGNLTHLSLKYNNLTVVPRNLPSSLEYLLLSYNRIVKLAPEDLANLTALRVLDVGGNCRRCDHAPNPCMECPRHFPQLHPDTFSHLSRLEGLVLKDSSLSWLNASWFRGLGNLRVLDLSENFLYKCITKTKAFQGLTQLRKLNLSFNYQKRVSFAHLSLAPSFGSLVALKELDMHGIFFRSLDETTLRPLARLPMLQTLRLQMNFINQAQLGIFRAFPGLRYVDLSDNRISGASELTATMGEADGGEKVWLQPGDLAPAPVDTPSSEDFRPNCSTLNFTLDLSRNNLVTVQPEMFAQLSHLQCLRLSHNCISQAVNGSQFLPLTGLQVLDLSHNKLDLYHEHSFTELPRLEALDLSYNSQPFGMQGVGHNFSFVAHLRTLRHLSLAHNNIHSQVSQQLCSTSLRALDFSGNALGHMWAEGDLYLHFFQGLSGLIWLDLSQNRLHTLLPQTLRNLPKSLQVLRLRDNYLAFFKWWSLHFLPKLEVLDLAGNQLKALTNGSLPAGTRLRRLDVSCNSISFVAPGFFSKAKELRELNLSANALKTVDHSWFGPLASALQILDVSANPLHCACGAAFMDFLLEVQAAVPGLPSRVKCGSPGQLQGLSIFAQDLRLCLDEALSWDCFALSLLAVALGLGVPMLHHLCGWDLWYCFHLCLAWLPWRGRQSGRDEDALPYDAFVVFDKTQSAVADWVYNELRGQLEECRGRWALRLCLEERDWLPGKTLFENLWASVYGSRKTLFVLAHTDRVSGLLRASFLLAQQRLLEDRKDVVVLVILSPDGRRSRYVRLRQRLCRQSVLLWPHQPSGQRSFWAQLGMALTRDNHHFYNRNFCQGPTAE
Experiment: HEK-TLR9 NF-κB-luciferase reporter, ODN2006 stimulation
Assay type: cell-based
Settings: ASO 100 nM; relative to ODN2006 only, given as fraction

Substance	TLR9 100 nM (averaged NF-κB-Luciferase level relative to ODN2006 condition)
GACTATACGCGCAATA (antisense; LNA-modified, pattern not given here) [NC5 LNA PS 3-10-3]	0.784
GAGGTCTTGGCTTCGT (antisense; LNA-modified, pattern not given here) [MB21D1-525 LNA V1]	0.897
GATGGCCTCCCATCTC (antisense; LNA-modified, pattern not given here) [HPRT LNA-331 V1]	1.033
GCACACTTCGTACCCA (antisense; LNA-modified, pattern not given here) [CAMSAP1-4915 LNA V1]	0.683
GCACTTCAGTCTGAGC (antisense; LNA-modified, pattern not given here) [MB21D1-719 LNA KL]	0.673
GGAGGTCTTGGCTTCG (antisense; LNA-modified, pattern not given here) [MB21D1-526 LNA V1]	0.912
GGCACTTTGCCTCCTT (antisense; LNA-modified, pattern not given here) [EGFR-2859 LNA V1]	1.092
GGCTCGGCTTGCCTAC (antisense; LNA-modified, pattern not given here) [CAMSAP1-5594 LNA V1]	0.714
GGTCATTACAATAGCT (antisense; LNA-modified, pattern not given here) [HPRT LNA-475 KL]	0.438
GGTCTTGGCTTCGTGG (antisense; LNA-modified, pattern not given here) [MB21D1-523 LNA V1]	0.658
GTCAAGGGCATATCCT (antisense; LNA-modified, pattern not given here) [HPRT LNA-732 KL]	0.844
GTCCTTGCACGTGGCT (antisense; LNA-modified, pattern not given here) [EGFR-1015 LNA V1]	1.310
GTCTCTGGAGCTTCCT (antisense; LNA-modified, pattern not given here) [CAMSAP1-2456 LNA V1]	0.935
GTCTTCATCGGCCCTG (antisense; LNA-modified, pattern not given here) [CAMSAP1-2113 LNA V1]	0.797
GTGATCTTGACATGCT (antisense; LNA-modified, pattern not given here) [EGFR-2790 LNA KL]	1.001
GTGATGGCCTCCCATC (antisense; LNA-modified, pattern not given here) [HPRT LNA-333 V1]	0.890

Substance	TLR9 100 nM (averaged NF-κB-Luciferase level relative to ODN2006 condition)
TACTTTCCGAGGTGTC (antisense; LNA-modified, pattern not given here) [CAMSAP1-1739 LNA KL]	0.915
TCCACAATCAAGACAT (antisense; LNA-modified, pattern not given here) [HPRT LNA-551 KL]	0.851
TCCATACCCAAGGCAT (antisense; LNA-modified, pattern not given here) [CTNN2B-2446 LNA V1]	1.075
TCCGCCCAAAGGGAAC (antisense; LNA-modified, pattern not given here) [HPRT LNA-1027 KL]	0.876
TCCTTGCACGTGGCTT (antisense; LNA-modified, pattern not given here) [EGFR-1014 LNA V1]	1.152
TCGTGGGGTCCTTTTC (antisense; LNA-modified, pattern not given here) [HPRT LNA-660 V1]	0.461
TCTTCATCGGCCCTGC (antisense; LNA-modified, pattern not given here) [CAMSAP1-2112 LNA V1]	0.921
TCTTGGCTTCGTGGAG (antisense; LNA-modified, pattern not given here) [MB21D1-521 LNA V1]	1.251
TGACAAAGATTCACTG (antisense; LNA-modified, pattern not given here) [HPRT LNA-1353 KL]	0.819
TGACTGTCTTGAGGGT (antisense; LNA-modified, pattern not given here) [MB21D1-1483 LNA KL]	1.245
TGCTCCTCGGTCTCCC (antisense; LNA-modified, pattern not given here) [CAMSAP1-1850 LNA V1]	0.548
TGGTCCACAACCCCTT (antisense; LNA-modified, pattern not given here) [MB21D1-697 LNA V1]	1.018
TGGTGGCCACCCATCT (antisense; LNA-modified, pattern not given here) [CTNN2B-2479 LNA V1]	1.136
TGTCCTTGCACGTGGC (antisense; LNA-modified, pattern not given here) [EGFR-1016 LNA V1]	1.020
TGTCTGGAAGCTTCCT (antisense; LNA-modified, pattern not given here) [CTNN2B-808 LNA V1]	1.320
TTCAGGCGCTGCCTTG (antisense; LNA-modified, pattern not given here) [CAMSAP1-2709 LNA V1]	1.202

Same assay, conditions: ASO 500 nM; relative to ODN2006 only, given as fraction

Substance	TLR9 500 nM (averaged NF-κB-Luciferase level relative to ODN2006 condition)
GACTATACGCGCAATA (antisense; LNA-modified, pattern not given here) [NC5 LNA PS 3-10-3]	0.403
GAGGTCTTGGCTTCGT (antisense; LNA-modified, pattern not given here) [MB21D1-525 LNA V1]	0.224
GATGGCCTCCCATCTC (antisense; LNA-modified, pattern not given here) [HPRT LNA-331 V1]	0.476
GCACACTTCGTACCCA (antisense; LNA-modified, pattern not given here) [CAMSAP1-4915 LNA V1]	0.147
GCACTTCAGTCTGAGC (antisense; LNA-modified, pattern not given here) [MB21D1-719 LNA KL]	0.144
GGAGGTCTTGGCTTCG (antisense; LNA-modified, pattern not given here) [MB21D1-526 LNA V1]	0.674
GGCACTTTGCCTCCTT (antisense; LNA-modified, pattern not given here) [EGFR-2859 LNA V1]	0.788
GGCTCGGCTTGCCTAC (antisense; LNA-modified, pattern not given here) [CAMSAP1-5594 LNA V1]	0.350
GGTCATTACAATAGCT (antisense; LNA-modified, pattern not given here) [HPRT LNA-475 KL]	0.604
GGTCTTGGCTTCGTGG (antisense; LNA-modified, pattern not given here) [MB21D1-523 LNA V1]	0.417
GTCAAGGGCATATCCT (antisense; LNA-modified, pattern not given here) [HPRT LNA-732 KL]	0.387
GTCCTTGCACGTGGCT (antisense; LNA-modified, pattern not given here) [EGFR-1015 LNA V1]	0.722
GTCTCTGGAGCTTCCT (antisense; LNA-modified, pattern not given here) [CAMSAP1-2456 LNA V1]	0.272
GTCTTCATCGGCCCTG (antisense; LNA-modified, pattern not given here) [CAMSAP1-2113 LNA V1]	0.617
GTGATCTTGACATGCT (antisense; LNA-modified, pattern not given here) [EGFR-2790 LNA KL]	0.181
GTGATGGCCTCCCATC (antisense; LNA-modified, pattern not given here) [HPRT LNA-333 V1]	0.694

Substance	TLR9 500 nM (averaged NF-κB-Luciferase level relative to ODN2006 condition)
TACTTTCCGAGGTGTC (antisense; LNA-modified, pattern not given here) [CAMSAP1-1739 LNA KL]	0.356
TCCACAATCAAGACAT (antisense; LNA-modified, pattern not given here) [HPRT LNA-551 KL]	0.308
TCCATACCCAAGGCAT (antisense; LNA-modified, pattern not given here) [CTNN2B-2446 LNA V1]	0.951
TCCGCCCAAAGGGAAC (antisense; LNA-modified, pattern not given here) [HPRT LNA-1027 KL]	0.599
TCCTTGCACGTGGCTT (antisense; LNA-modified, pattern not given here) [EGFR-1014 LNA V1]	1.027
TCGTGGGGTCCTTTTC (antisense; LNA-modified, pattern not given here) [HPRT LNA-660 V1]	0.462
TCTTCATCGGCCCTGC (antisense; LNA-modified, pattern not given here) [CAMSAP1-2112 LNA V1]	0.445
TCTTGGCTTCGTGGAG (antisense; LNA-modified, pattern not given here) [MB21D1-521 LNA V1]	0.595
TGACAAAGATTCACTG (antisense; LNA-modified, pattern not given here) [HPRT LNA-1353 KL]	0.574
TGACTGTCTTGAGGGT (antisense; LNA-modified, pattern not given here) [MB21D1-1483 LNA KL]	0.290
TGCTCCTCGGTCTCCC (antisense; LNA-modified, pattern not given here) [CAMSAP1-1850 LNA V1]	0.535
TGGTCCACAACCCCTT (antisense; LNA-modified, pattern not given here) [MB21D1-697 LNA V1]	0.587
TGGTGGCCACCCATCT (antisense; LNA-modified, pattern not given here) [CTNN2B-2479 LNA V1]	1.117
TGTCCTTGCACGTGGC (antisense; LNA-modified, pattern not given here) [EGFR-1016 LNA V1]	0.853
TGTCTGGAAGCTTCCT (antisense; LNA-modified, pattern not given here) [CTNN2B-808 LNA V1]	0.648
TTCAGGCGCTGCCTTG (antisense; LNA-modified, pattern not given here) [CAMSAP1-2709 LNA V1]	0.494

Same assay, conditions: HEK-TLR9; 500 nM ASO 45 min, then 200 nM ODN2006 overnight; percentage of ODN2006 only

Substance	TLR9-500 nM: averaged NF-κB-Luciferase relative to ODN2006 [%]
mA*mA*mA*mG*mC*A*G*T*C*T*C*C*A*T*G*mU*mC*mC*mC*mA (mA*mA*mA*mG*mC*dA*dG*dT*dC*dT*dC*dC*dA*dT*dG*mU*mC*mC*mC*mA; antisense) [[CDKN2B-AS1]2237]	87.17
mA*mA*mG*mC*mA*G*T*C*T*C*C*A*T*G*T*mC*mC*mC*mA*mG (mA*mA*mG*mC*mA*dG*dT*dC*dT*dC*dC*dA*dT*dG*dT*mC*mC*mC*mA*mG; antisense) [[CDKN2B-AS1]2236]	69.71
